# Assay results taken from patent US12637428B2, “Isoquinoline derivatives as SIK2 inhibitors” (Cancer Research Technology Limited, priority 2019, dated 2026).
# What was measured:
# Type in all cases: biochemical
# SIK2 = target: T1, SIK2 (Homo sapiens, UniProt Q9H0K1); assay: SIK2 kinase assay, IMAP fluorescence polarization; conditions: 50 or 100 μM ATP, average
# T1 construct: purchased Life Technologies
# Experimental: (§1) SIK2, SIK1, SIK3, Abl, Src and EPHA2 Kinase Assays
# (§2) SIK2, SIK1, SIK3, Abl, Src and EPHA2 assays were performed using an IMAP fluorescence polarization assay format (Molecular Devices Inc.). 0.6-13 nM of each kinase (Life Technologies) was incubated for 60 min at room temperature with 100 nM of either FAM-Abltide, FAM-Srctide or FAM-HDAC protein derived peptide (synthesized by Alta Biosciences, Birmingham UK). Assays were carried out in the presence of 50 or 100 μM ATP in either 20 mM Tris buffer (pH 7.2) containing 4 mM MgCl2, 0.2% BSA and 2 mM DTT (SIK2, SIK1, SIK3, Abl, Src); or 20 mM Tris buffer (pH 8.5) containing 20 mM MgCl2, 0.5% BSA, 0.2% Triton and 5 mM DTT (EPHA2). Typically, dose response analyses were performed over concentration ranges from 0.00005-1 μM. Reactions were stopped by adding 2 assay volumes of 0.25% (v/v) IMAP binding reagent in either an 85:15 ratio (SIK2, SIK1, SIK3, Abl, EPHA2) or 30:70 ratio (Src) of IMAP binding buffers A and B (Molecular Devices). After incubation to allow the detection reagents to bind to the phosphorylated peptide, fluorescence polarization was measured on a Tecan Infinite plate reader at excitation (470 nm) and emission (530 nm) wavelengths. Inhibition was calculated using no inhibitor and no enzyme controls as 0 and 100% inhibition, respectively.
# (§3) Table 3 provides details of the inhibitory constant (nM) of compounds of the invention at SIK1, SIK2 and SIK3 and other kinases.
# SIK1 = target: T2, SIK1 (Homo sapiens, UniProt P57059); assay: SIK1 kinase assay, IMAP fluorescence polarization; conditions: 50 or 100 μM ATP, average
# T2 construct: purchased Life Technologies
# T2 sequence (P57059 whole entry): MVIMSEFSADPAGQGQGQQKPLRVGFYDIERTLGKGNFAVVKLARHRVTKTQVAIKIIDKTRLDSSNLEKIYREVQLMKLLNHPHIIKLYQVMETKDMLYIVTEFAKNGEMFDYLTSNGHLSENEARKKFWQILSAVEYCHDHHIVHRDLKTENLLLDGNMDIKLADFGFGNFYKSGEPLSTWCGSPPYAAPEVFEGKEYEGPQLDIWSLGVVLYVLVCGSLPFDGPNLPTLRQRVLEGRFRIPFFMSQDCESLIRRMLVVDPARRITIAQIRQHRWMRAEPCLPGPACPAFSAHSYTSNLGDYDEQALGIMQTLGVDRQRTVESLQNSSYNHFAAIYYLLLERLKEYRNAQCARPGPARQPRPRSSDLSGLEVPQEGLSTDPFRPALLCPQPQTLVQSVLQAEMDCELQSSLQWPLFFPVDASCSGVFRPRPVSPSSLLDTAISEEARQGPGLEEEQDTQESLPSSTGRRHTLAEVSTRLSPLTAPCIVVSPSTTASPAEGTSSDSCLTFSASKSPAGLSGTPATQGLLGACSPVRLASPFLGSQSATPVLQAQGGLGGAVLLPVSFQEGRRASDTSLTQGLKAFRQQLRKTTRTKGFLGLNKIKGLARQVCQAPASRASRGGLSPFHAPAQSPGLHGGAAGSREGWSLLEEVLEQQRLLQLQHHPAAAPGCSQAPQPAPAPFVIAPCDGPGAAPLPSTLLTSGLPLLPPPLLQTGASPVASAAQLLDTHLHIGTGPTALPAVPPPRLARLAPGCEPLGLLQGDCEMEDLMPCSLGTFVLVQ
# Experimental: as §1, §2, §3
# SIK3 = target: T3, SIK3 (Homo sapiens, UniProt Q9Y2K2); assay: SIK3 kinase assay, IMAP fluorescence polarization; conditions: 50 or 100 μM ATP, average
# T3 construct: purchased Life Technologies
# T3 sequence (Q9Y2K2 whole entry): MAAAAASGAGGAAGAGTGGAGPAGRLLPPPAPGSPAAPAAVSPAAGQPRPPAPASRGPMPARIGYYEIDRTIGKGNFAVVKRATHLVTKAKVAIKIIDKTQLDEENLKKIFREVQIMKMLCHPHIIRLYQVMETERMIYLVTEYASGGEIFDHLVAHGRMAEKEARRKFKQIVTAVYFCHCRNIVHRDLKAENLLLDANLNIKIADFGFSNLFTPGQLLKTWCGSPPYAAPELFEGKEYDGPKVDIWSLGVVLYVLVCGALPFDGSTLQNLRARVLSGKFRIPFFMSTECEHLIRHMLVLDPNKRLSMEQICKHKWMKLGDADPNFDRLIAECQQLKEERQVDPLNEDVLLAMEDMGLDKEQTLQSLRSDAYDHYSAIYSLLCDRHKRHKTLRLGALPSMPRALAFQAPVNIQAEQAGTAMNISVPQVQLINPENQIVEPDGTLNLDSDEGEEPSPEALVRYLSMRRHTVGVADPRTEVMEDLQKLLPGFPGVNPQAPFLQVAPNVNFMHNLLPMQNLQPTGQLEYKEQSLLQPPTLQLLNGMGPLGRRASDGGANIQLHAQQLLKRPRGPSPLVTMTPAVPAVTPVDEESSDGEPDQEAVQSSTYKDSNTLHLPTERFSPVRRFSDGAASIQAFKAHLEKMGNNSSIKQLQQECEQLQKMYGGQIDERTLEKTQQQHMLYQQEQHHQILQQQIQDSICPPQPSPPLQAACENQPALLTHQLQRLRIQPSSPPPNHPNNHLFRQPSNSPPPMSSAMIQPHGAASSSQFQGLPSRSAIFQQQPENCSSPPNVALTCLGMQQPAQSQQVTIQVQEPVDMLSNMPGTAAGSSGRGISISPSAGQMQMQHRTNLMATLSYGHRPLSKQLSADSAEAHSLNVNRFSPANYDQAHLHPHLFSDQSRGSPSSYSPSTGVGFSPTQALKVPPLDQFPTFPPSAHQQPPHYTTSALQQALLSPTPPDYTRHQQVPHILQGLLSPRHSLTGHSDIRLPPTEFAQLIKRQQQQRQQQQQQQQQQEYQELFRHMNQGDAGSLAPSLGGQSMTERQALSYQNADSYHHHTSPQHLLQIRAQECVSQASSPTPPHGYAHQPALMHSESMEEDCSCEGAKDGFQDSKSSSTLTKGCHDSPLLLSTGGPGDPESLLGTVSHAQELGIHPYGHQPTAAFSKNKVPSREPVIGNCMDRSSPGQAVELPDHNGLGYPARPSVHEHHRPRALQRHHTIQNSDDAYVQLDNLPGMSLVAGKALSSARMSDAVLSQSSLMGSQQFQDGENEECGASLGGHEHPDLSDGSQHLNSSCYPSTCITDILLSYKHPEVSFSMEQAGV
# Experimental: as §1, §2, §3
# Abl = target: T4, Abl (Homo sapiens, UniProt P00519); assay: Abl kinase assay, IMAP fluorescence polarization; conditions: 50 or 100 μM ATP, average
# T4 construct: purchased Life Technologies
# Experimental: as §1, §2, §3
# Src = target: T5, Src (Homo sapiens, UniProt P12931); assay: Src kinase assay, IMAP fluorescence polarization; conditions: 50 or 100 μM ATP, average
# T5 construct: purchased Life Technologies
# T5 sequence (P12931 whole entry): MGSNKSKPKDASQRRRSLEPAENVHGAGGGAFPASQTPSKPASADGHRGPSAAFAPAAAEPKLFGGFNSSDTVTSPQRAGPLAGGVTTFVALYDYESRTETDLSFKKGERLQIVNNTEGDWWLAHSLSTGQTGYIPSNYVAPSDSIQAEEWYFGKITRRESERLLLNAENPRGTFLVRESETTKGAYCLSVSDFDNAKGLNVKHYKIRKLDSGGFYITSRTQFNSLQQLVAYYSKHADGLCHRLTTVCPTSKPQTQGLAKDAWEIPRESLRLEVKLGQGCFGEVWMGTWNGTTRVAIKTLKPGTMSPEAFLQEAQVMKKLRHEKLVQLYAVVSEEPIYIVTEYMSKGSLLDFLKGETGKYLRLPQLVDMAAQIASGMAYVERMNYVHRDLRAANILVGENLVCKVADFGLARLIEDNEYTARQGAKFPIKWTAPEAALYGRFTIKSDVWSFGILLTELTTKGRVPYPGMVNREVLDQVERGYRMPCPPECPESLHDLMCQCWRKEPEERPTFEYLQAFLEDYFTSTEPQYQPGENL
# Experimental: as §1, §2, §3
# EPHA2 = target: T6, EPHA2 (Homo sapiens, UniProt P29317); assay: EPHA2 kinase assay, IMAP fluorescence polarization; conditions: 50 or 100 μM ATP, Tris pH 8.5, average
# T6 construct: purchased Life Technologies
# T6 sequence (P29317 24-976): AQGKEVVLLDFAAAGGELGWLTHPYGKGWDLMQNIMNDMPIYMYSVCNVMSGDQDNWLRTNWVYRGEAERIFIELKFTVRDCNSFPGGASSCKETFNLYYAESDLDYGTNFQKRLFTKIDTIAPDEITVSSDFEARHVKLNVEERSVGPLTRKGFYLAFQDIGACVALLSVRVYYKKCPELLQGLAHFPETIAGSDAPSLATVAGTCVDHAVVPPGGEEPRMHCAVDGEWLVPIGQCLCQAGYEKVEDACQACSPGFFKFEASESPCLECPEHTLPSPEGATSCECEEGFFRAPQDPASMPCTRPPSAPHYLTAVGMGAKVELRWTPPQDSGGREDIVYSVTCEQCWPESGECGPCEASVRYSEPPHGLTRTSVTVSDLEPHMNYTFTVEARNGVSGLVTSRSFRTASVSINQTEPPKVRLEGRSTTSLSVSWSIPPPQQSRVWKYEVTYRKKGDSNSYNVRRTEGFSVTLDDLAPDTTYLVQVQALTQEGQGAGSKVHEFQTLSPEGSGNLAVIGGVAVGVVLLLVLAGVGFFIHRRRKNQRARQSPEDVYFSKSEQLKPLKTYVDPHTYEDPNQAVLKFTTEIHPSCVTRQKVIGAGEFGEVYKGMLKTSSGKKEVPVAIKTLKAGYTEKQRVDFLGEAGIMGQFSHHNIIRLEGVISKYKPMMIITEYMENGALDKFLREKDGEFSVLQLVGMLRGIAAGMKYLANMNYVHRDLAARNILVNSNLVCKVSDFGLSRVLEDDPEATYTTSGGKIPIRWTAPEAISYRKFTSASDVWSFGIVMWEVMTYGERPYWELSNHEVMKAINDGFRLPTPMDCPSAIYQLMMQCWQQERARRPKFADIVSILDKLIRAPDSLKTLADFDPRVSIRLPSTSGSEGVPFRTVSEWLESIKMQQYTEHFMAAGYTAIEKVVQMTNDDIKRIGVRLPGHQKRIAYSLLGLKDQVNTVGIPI
# Experimental: as §1, §2, §3
# T1 sequence (Q9H0K1 whole entry): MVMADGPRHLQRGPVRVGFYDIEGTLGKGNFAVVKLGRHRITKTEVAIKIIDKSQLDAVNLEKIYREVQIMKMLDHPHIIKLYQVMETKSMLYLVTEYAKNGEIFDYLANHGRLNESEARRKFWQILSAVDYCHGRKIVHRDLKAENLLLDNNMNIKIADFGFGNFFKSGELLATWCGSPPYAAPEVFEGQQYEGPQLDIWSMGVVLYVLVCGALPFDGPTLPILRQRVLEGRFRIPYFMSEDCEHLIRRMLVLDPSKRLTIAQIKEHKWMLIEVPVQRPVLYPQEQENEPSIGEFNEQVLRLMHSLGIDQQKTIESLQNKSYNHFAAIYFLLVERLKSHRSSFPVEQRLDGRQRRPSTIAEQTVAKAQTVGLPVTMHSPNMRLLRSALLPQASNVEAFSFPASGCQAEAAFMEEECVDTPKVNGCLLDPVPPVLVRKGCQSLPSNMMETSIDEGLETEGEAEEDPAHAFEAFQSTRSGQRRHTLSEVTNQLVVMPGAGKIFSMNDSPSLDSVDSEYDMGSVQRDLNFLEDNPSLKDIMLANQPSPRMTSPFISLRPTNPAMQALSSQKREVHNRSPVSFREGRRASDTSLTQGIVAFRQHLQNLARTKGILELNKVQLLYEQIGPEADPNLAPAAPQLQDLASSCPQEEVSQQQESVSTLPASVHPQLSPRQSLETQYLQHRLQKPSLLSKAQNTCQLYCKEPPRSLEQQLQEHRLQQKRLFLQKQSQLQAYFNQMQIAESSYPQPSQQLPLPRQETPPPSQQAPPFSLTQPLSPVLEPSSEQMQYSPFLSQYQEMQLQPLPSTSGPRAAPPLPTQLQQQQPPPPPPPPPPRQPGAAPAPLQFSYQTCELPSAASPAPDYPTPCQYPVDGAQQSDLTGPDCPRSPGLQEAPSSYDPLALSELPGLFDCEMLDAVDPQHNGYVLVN
Ki (SIK2) [nM],Ki (SIK1) [nM],Ki (SIK3) [nM],Ki (Abl) [nM],Ki (Src) [nM],Ki (EPHA2) [nM],Compound
0.0518,0.364,0.352,16.3,153,122,"Cc1cccc(F)c1-c1cc(NC2CCNCC2)c2cc(N)ncc2c1 [Example 1, 7-(2-Fluoro-6-methyl-phenyl)-N5-(4-piperidyl)isoquinoline-3,5-diamine]"
0.18,0.524,1.37,11.1,157,64.6,"Cc1cccc(F)c1-c1cc(NC[C@H]2CCCNC2)c2cc(N)ncc2c1 [Example 2, 7-(2-fluoro-6-methyl-phenyl)-N5-[[(3S)-3-piperidyl]methyl]isoquinoline-3,5-diamine]"
0.143,0.808,0.643,20.4,330,878,"Cc1cccc(F)c1-c1cc(NC2CNC2)c2cc(N)ncc2c1 [Example 3, N5-(azetidin-3-yl)-7-(2-fluoro-6-methyl-phenyl)isoquinoline-3,5-diamine]"
0.0703,0.354,0.231,7.79,138,644,"Cc1cccc(F)c1-c1cc(N[C@@H]2CCNC2)c2cc(N)ncc2c1 [Example 4, 7-(2-fluoro-6-methyl-pheny)-N5-[(3R)-pyrrolidin-3-yl]isoquinoline-3,5-diamine]"
26.1,,,,,,"Nc1cc2c(NC3CCNCC3)cc(-c3c(F)cccc3Cl)cc2cn1 [Example 20, 7-(2-chloro-6-fluoro-phenyl)-N5-(4-piperidyl)isoquinoline-3,5-diamine]"
27.3,,,487,723,,"Cc1cccc(F)c1-c1ccc2c(C(=O)NC3CNC3)c(N)ncc2c1 [Example 32, 3-Amino-N-(azetidin-3-yl)-7-(2-fluoro-6-methyl-phenyl)isoquinoline-4-carboxamide]"
11.8,,,,,,"Cc1cccc(F)c1-c1ccc2c(C(=O)NCC3CNC3)c(N)ncc2c1 [Example 33, 3-amino-N-(azetidin-3-ylmethyl)-7-(2-fluoro-6-methyl-phenyl)isoquinoline-4-carboxamide]"
41.5,,,,,,"Cc1cccc(F)c1-c1ccc2c(C(=O)NCC3CCNCC3)c(N)ncc2c1 [Example 34, 3-amino-7-(2-fluoro-6-methyl-phenyl)-N-(4-piperidylmethyl)isoquinoline-4-carboxamide]"
11.4,,,446,564,,"Cc1cccc(F)c1-c1ccc2c(C(=O)NC3CCNCC3)c(N)ncc2c1 [Example 35, 3-amino-7-(2-fluoro-6-methyl-phenyl)-N-(4-piperidyl)isoquinoline-4-carboxamide]"
18.2,,,,,,"Cc1cccc(F)c1-c1ccc2c(C(=O)N[C@@H]3CCNC3)c(N)ncc2c1 [Example 36, 3-amino-7-(2-fluoro-6-methyl-phenyl)-N-[(3R)-pyrrolidin-3-yl]isoquinoline-4-carboxamide]"
7.74,,,,,,"Cc1cccc(F)c1-c1ccc2c(C(=O)N[C@H]3CCNC3)c(N)ncc2c1 [Example 37, 3-amino-7-(2-fluoro-6-methyl-phenyl)-N-[(3S)-pyrrolidin-3-yl]isoquinoline-4-carboxamide]"
11.3,,,88.5,137,764,"Cc1cccc(Cl)c1-c1ccc2c(C(=O)NC3CNC3)c(N)ncc2c1 [Example 38, 3-amino-N-(azetidin-3-yl)-7-(2-chloro-6-methyl-phenyl)isoquinoline-4-carboxamide]"
19.6,,,,,,"Cc1cccc(Cl)c1-c1ccc2c(C(=O)NCC3CNC3)c(N)ncc2c1 [Example 39, 3-amino-N-(azetidin-3-ylmethyl)-7-(2-chloro-6-methyl-phenyl)isoquinoline-4-carboxamide]"
39.5,,,,,,"Cc1cccc(Cl)c1-c1ccc2c(C(=O)NCC3CCNCC3)c(N)ncc2c1 [Example 40, 3-amino-7-(2-chloro-6-methyl-phenyl)-N-(4-piperidylmethyl)isoquinoline-4-carboxamide]"
3.75,6.07,61.7,190,58.4,,"Cc1cccc(Cl)c1-c1ccc2c(C(=O)NC3CCNCC3)c(N)ncc2c1 [Example 41, 3-amino-7-(2-chloro-6-methyl-phenyl)-N-(4-piperidyl)isoquinoline-4-carboxamide]"
6.54,,,345,136,,"Cc1cccc(Cl)c1-c1ccc2c(C(=O)N[C@H]3CCNC3)c(N)ncc2c1 [Example 43, 3-amino-7-(2-chloro-6-methyl-phenyl)-N-[(3S)-pyrrolidin-3-yl]isoquinoline-4-carboxamide]"
11.7,,,> 10000,2420,,"CN1CCC(Nc2cc(-c3c(F)cccc3Cl)cc3cnc(N)cc23)CC1 [Example 64, 7-(2-Chloro-6-fluoro-phenyl)-N5-(1-methyl-4-piperidyl)isoquinoline-3,5-diamine]"
7.68,,,296,1350,,"Cc1cccc(F)c1-c1cc(N2CC[C@@H](CN(C)C)C2)c2cc(N)ncc2c1 [Example 81, 5-[(3S)-3-[(dimethylamino)methyl]pyrrolidin-1-yl]-7-(2-fluoro-6-methyl-phenyl) isoquinolin-3-amine]"
9.99,,,667,574,,"Cc1cccc(F)c1-c1ccc2c(C(=O)NC3CCN(C)CC3)c(N)ncc2c1 [Example 87, 3-Amino-7-(2-fluoro-6-methyl-phenyl)-N-(1-methyl-4-piperidyl)isoquinoline-4-carboxamide]"
32.3,,,,,,"Cc1cccc(F)c1-c1ccc2c(C(=O)NCC3CN(C)C3)c(N)ncc2c1 [Example 90, 3-amino-7-(2-fluoro-6-methyl-phenyl)-N-[(1-methylazetidin-3-yl)methyl]isoquinoline-4-carboxamide]"
47.6,,,,,,"Cc1cccc(F)c1-c1ccc2c(C(=O)NCC3CCN(C)CC3)c(N)ncc2c1 [Example 91, 3-amino-7-(2-fluoro-6-methyl-phenyl)-N-[(1-methyl-4-piperidyl)methyl] isoquinoline-4-carboxamide]"
16.8,,,,,,"Cc1cccc(F)c1-c1ccc2c(C(=O)N[C@@H]3CCN(C)C3)c(N)ncc2c1 [Example 92, 3-amino-7-(2-fluoro-6-methyl-phenyl)-N-[(3R)-1-methylpyrrolidin-3-yl]isoquinoline-4-carboxamide]"
26.8,,,,,,"Cc1cccc(F)c1-c1ccc2c(C(=O)N[C@H]3CCN(C)C3)c(N)ncc2c1 [Example 93, 3-amino-7-(2-fluoro-6-methyl-phenyl)-N-[(3S)-1-methylpyrrolidin-3-yl]isoquinoline-4-carboxamide]"
14.4,,,,,,"Cc1cccc(Cl)c1-c1ccc2c(C(=O)NC3CN(C)C3)c(N)ncc2c1 [Example 94, 3-amino-7-(2-chloro-6-methyl-phenyl)-N-(1-methylazetidin-3-yl)isoquinoline-4-carboxamide]"
31.6,,,,,,"Cc1cccc(Cl)c1-c1ccc2c(C(=O)NCC3CN(C)C3)c(N)ncc2c1 [Example 95, 3-amino-7-(2-chloro-6-methyl-phenyl)-N-[(1-methylazetidin-3-yl)methyl]isoquinoline-4-carboxamide]"
54.5,,,,,,"Cc1cccc(Cl)c1-c1ccc2c(C(=O)NCC3CCN(C)CC3)c(N)ncc2c1 [Example 96, 3-amino-7-(2-chloro-6-methyl-phenyl)-N-[(1-methyl-4-piperidyl)methyl] isoquinoline-4-carboxamide]"
13,,,,,,"Cc1cccc(Cl)c1-c1ccc2c(C(=O)N[C@@H]3CCN(C)C3)c(N)ncc2c1 [Example 97, 3-amino-7-(2-chloro-6-methyl-phenyl)-N-[(3R)-1-methylpyrrolidin-3-yl]isoquinoline-4-carboxamide]"
12.8,,,481,317,,"Cc1cccc(Cl)c1-c1ccc2c(C(=O)N[C@H]3CCN(C)C3)c(N)ncc2c1 [Example 98, 3-amino-7-(2-chloro-6-methyl-phenyl)-N-[(3S)-1-methylpyrrolidin-3-yl]isoquinoline-4-carboxamide]"
38.1,,,169,> 10000,,"Cc1cccc(F)c1-c1cc(N2CC[C@H](O)C2)c2cc(N)ncc2c1 [Example 105, (3S)-1-[3-amino-7-(2-fluoro-6-methyl-phenyl)-5-isoquinolyl]pyrrolidin-3-ol]"
83.5,,,,,,"Cc1cccc(F)c1-c1cc(NC2CCCCC2)c2cc(N)ncc2c1 [Example 111, N5-cyclohexyl-7-(2-fluoro-6-methyl-phenyl)isoquinoline-3,5-diamine]"
